Consider 2 compounds from patent US20260144788A1, “COMPOUND FOR SHP2 PROTEIN DEGRADATION AND MEDICAL USES THEREOF” (UBIX THERAPEUTICS, INC., priority 2022, published 2026).

SMILES strings stand for the structures.

For this test, the target named is T1, SHP2 protein (Homo sapiens, UniProt Q06124).
T1 sequence (Q06124 1-593): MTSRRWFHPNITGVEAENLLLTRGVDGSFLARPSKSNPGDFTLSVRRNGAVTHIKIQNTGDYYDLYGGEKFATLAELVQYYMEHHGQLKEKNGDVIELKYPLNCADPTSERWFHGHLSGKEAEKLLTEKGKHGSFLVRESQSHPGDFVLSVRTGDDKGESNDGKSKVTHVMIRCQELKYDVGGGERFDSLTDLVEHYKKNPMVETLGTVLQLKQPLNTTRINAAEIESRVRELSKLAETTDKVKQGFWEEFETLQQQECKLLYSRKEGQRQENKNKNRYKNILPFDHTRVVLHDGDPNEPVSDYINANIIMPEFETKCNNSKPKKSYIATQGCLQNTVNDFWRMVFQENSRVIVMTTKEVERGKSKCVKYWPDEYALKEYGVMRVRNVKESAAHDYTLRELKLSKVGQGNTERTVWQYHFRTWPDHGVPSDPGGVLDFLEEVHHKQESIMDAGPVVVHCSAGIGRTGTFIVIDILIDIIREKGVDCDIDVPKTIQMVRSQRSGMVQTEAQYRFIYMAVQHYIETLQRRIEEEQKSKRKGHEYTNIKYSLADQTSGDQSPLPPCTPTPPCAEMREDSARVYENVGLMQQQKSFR
The experiment in a line: Measurement of SHP2 protein degradation in MV-4-11 cells (western blotting). The class given is cell-based. Set-up: endogenous in cells. The settings on record: harvested after 24 hours. The essentials:
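MV-4-11 cells in IMDM/5% FBS were exposed to compound at final 0.01, 0.1, 1 μM or 0.001, 0.01, 0.1 μM for 24 h, DMSO as negative control. BCA-normalised lysates were immunoblotted for SHP2 with GAPDH as loading control, read on LI-COR Odyssey.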
On the technique in general: A western blot detects proteins with antibodies after separation by electrophoresis.

For `Cc1ncsc1-c1ccc([C@H](C)NC(=O)[C@@H]2C[C@@H](O)CN2C(=O)[C@@H](NC(=O)C2(F)CC2)C(C)(C)C)c(OC2CCN(C(=O)C3CCN(c4nccc(Sc5cnc(N6CCC(C)(CN)CC6)cn5)c4Cl)CC3)CC2)c1` [Example 86, (2S,4R)—N—((S)-1-(2-((1-(1-(4-((5-(4-(aminomethyl)-4-methylpiperidin-1-yl)pyrazin-2-yl)thio)-3-chloropyridin-2-yl)piperidine-4-carbonyl)piperidin-4-yl)oxy)-4-(4-methylthiazol-5-yl)phenyl)ethyl)-1-((S)-2-(1-fluorocyclopropane-1-carboxamido)-3,3-dimethylbutanoyl)-4-hydroxypyrrolidine-2-carboxamide], the SHP2% degradation (0.01 μM) amounted to 81.9% and the SHP2% degradation (0.1 μM) amounted to 99.9%.
For `CC(=O)N[C@H](C(=O)N1C[C@H](O)C[C@H]1C(=O)N[C@@H](C)c1ccc(-c2scnc2C)cc1OC1CCN(C(=O)C2CCN(c3nccc(Sc4cnc(N5CCC(C)(CN)CC5)cn4)c3Cl)CC2)CC1)C(C)(C)C` [Example 87, (2S,4R)-1-((S)-2-acetamido-3,3-dimethylbutanoyl)-N—((S)-1-(2-((1-(1-(4-((5-(4-(aminomethyl)-4-methylpiperidin-1-yl)pyrazin-2-yl)thio)-3-chloropyridin-2-yl)piperidine-4-carbonyl)piperidin-4-yl)oxy)-4-(4-methylthiazol-5-yl)phenyl)ethyl)-4-hydroxypyrrolidine-2-carboxamide] the same measures were 95.8% and 100.0%.
